We go through one compound from article PMC5991599, “Anti‐tumor efficacy of a novel CLK inhibitor via targeting RNA splicing and MYC‐dependent vulnerability” (EMBO Molecular Medicine, 2018).

Read-outs that look alike come from different tables or passages of the source.

The subject of assay [1] is MYC-inducible SK-MEL-28 cells. The assay is described as follows: Growth inhibition in MYC-inducible SK-MEL-28 cells. The format is cell-based. The note with it: Homo sapiens, read-out: IC50 (nmol/L) (95% CI). How it is done:
To obtain an MYC‐inducible cell line, SK‐MEL‐28 cells were engineered via stable lentiviral transduction to express an empty pTRIPZ vector (Open Biosystems/GE Healthcare Dharmacon Inc., Lafayette, CO, USA) or a Tet‐inducible promoter‐driven MYC gene. Infected cells were selected with geneticin for 4 days, left to recover for 24 h, and treated with 0.5 μg/ml Dox (Sigma‐Aldrich, St. Louis, MO, USA). U2OS cells were similarly engineered to express an empty pBABE vector (Cell Biolabs, Inc., San Diego, CA, USA) or a MYC‐estrogen receptor (MYC‐ER) transgene via 3 days of puromycin selection followed by treatment with 0.5 μmol/l tamoxifen (Sigma‐Aldrich).
Silencer Select Pre-designed siRNAs purchased from Ambion (Thermo Fisher
Scientific) were used. The siRNA ID# and sequence are shown below: […]
Cell proliferation assay, Caspase-3/7 assay
Cell proliferation was measured using CellTiter-Glo luminescent cell viability
assay (Promega, Fitchburg, WI, U.S.A.). Caspase-3/7 activity was measured using
Caspase-Glo 3/7 Assay Systems (Promega). Luminescence of each well was measured
using ARVO Light (PerkinElmer Inc., Waltham, MA, U.S.A.). The IC50 value and 95%
confidential intervals were estimated using GraphPad Prism 5 (GraphPad Software,
Inc., La Jolla, CA, U.S.A.). […]

Assay [2] addresses CLK1 (Homo sapiens, UniProt P49759). On the set-up: method as in Funnell et al, 2017. The note with it: enzymatic assay; ref Funnell et al, 2017; read-out: IC50 (nmol/L) CLK1; cited from earlier work.
Assay [3] concerns the target DYRK1B (Homo sapiens, UniProt Q9Y463). On the set-up: method as in Funnell et al, 2017. The settings on record: enzymatic assay; ref Funnell et al, 2017; read-out: IC50 (nmol/L) DYRK1B; cited from earlier work.
Assay [4] has as its target T1, DYRK1A (Homo sapiens, UniProt Q13627).
T1 construct: purchased DiscoverX Corporation (Fremont, CA, USA)
On the set-up: method as in Funnell et al, 2017. The note with it: enzymatic assay; ref Funnell et al, 2017; read-out: IC50 (nmol/L) DYRK1A; cited from earlier work.

Assay [5] deals with HCT116 cells. The assay is described as follows: Modulation of the 125 T-025-dependent skipped exons (RNA-Seq, MISO). The format is cell-based. The note with it: |ΔPSI| > 0.4, T3 AS events from Funnell et al, 2017. How it is done:
The RNA‐Seq was performed at Takara Bio Inc. (Shiga, Japan) or Macrogen, Inc. (Seoul, South Korea) by using HiSeq2000 or HiSeq4000 (Illumina Inc., San Diego, CA, USA). Splicing bioinformatics analysis using MISO and pathway analysis using Cytoscape (Shannon et al, 2003) were performed as previously described (Funnell et al, 2017). Briefly, the BAM alignment files produced by TopHat and the files for AS events (for hg19) provided by MISO were used as inputs. […] For clustering, we used 1,320 splicing events with ΔPSI > 0.4, the BF > 20, and SD of PSI for each splicing event > 0.2. Hierarchical clustering was performed using heatmap3 from the R package.

Chain of CLK1 (P49759 whole entry): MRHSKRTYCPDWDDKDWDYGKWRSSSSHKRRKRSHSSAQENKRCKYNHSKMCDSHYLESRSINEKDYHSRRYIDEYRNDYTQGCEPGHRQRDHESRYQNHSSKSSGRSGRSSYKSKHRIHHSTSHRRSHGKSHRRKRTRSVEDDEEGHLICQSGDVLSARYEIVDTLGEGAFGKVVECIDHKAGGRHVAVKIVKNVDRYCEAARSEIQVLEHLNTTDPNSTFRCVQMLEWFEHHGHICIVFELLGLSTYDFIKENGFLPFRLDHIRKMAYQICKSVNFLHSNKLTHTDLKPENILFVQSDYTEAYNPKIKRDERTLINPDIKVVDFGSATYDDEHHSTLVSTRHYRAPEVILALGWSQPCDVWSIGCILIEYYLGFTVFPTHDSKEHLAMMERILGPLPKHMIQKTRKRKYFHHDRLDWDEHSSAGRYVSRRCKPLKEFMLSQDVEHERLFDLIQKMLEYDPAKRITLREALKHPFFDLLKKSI
Chain of DYRK1B (Q9Y463 whole entry): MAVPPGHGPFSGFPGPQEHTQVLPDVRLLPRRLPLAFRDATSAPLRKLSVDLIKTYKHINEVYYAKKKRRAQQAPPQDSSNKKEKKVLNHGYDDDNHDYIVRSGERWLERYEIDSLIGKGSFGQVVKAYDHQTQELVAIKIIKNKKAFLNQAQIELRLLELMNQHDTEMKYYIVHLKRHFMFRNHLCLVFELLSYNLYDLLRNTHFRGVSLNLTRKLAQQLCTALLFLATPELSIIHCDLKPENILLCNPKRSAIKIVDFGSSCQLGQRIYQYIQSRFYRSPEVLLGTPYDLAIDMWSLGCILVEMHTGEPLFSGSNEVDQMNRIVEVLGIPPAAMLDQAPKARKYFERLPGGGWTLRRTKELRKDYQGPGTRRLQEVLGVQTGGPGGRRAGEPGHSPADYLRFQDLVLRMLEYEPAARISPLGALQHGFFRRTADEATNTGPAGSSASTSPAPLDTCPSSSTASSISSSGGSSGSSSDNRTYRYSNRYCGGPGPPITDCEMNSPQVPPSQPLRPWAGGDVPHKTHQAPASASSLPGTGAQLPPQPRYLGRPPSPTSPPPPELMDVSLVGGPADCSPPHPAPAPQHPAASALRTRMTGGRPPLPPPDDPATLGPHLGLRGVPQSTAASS

`CN1CCN(C(=O)C(C)(C)c2ccc(C(=O)Nc3cn4cc(-c5ccncc5)ccc4n3)cc2)CC1` [T3]: the IC50 was 471 nmol/L in assay [1] (SK-MEL-28, 72 h, myc - Dox); 459 nmol/L in assay [1] (SK-MEL-28, 72 h, vector - Dox); 294 nmol/L in assay [1] (SK-MEL-28, myc + Dox (48 h pretreatment), 72 h); 471 nmol/L in assay [1] (SK-MEL-28, vector + Dox (48 h pretreatment), 72 h); 0.63 nmol/L in assay [2]; 260 nmol/L in assay [3]. In addition, the IC50 in assay [4] is 230 nmol/L. Further, the “share of the 125 T-025-dependent SEs also changed” value in assay [5] (T3 at 500 nmol/l) stood at 58.4%; in assay [5] (T3 at 1,000 nmol/l), 77.6%.
